Assay results taken from patent US20220064167A1, “IMIDAZO-PYRAZOLE CARBOXAMIDE DERIVATIVES AS ANTICANCER AGENTS AND THE SYNTHESIS THEREOF” (AVIDIN KFT., priority 2018, published 2022).

Key:
HT199 (human melanoma) = assay: viability assay (Table 2); assay type: cell-based
Procedure: (§1) For viability assays cells were seeded in 96 well plates (MCF7 and 4T1: 6000, HL60: 120.000 cells/well) and incubated overnight. Compounds were dissolved in dimethyl sulfoxide (DMSO). Cells were treated with an increasing concentration of compounds having the general formula (I.) (156 nM-100 μM). Cell viability was determined after 72h incubation. Resazurin reagent (Sigma-Aldrich) was dissolved in PBS (pH 7.4) at 0.15 mg/ml concentration, sterile filtered (0.22 μm, Merck Millipore) and aliquoted at −20° C. Resazurin reagent (Sigma-Aldrich) was added at a final concentration of 25 μg/ml. After 2 hours incubation at 37° C. 5% CO2 fluorescence (530 nm excitation/580 nm emission) was recorded on a multimode microplate reader (Cytofluor4000, PerSeptive Biosytems). Viability was calculated with relation to untreated control cells and blank wells containing media without cells. IC50 values (50% inhibiting concentration) were calculated by GraphPad Prism® 5 (La Jolla, Calif., USA).
(§2) HT168 (human melanoma), HT199 (human melanoma), HT29 (human colorectal adenocarcinoma), MOLT4 (human leukemia) and U937 (human lymphoma) cells were maintained in Roswell Park Memorial Institute 1640 medium (RPMI-1640) 10% FCS. SKOV-3 cells were maintained in Dulbecco's Modified Eagle Medium/McCoy's medium (DMEM/McCoy) 10% FCS.
(§3) Media were supplemented with 2 mM GlutaMAX, and 100 U/mL penicillin, 100 μg/mL streptomycin (Life Technologies, Carlsbad, Calif., USA). Cell cultures were maintained at 37° C. in a humidified incubator in an atmosphere of 5% CO2 (Sanyo, Japan).
(§4) Viability assays were performed as described in Example 102.

HT168 (human melanoma) = assay: viability assay (Table 2); assay type: cell-based
Procedure: as §1, §2, §3, §4

[1] = test system: HT29 (human colorectal adenocarcinoma); assay: viability assay (Table 2); assay type: cell-based; conditions: HT-29
Procedure: as §1, §2, §3, §4

[2] = test system: human primary fibroblasts; assay: resazurin viability assay on primary fibroblasts, Example 103 (FIG. 1); assay type: cell-based; conditions: 72 h incubation, applied concentration range 1.6 nM-5 μM
Text: To obtain primary human fibroblasts healthy volunteers (age 18-60 years) were enrolled into the study. The punch biopsies were taken from healthy subjects from the breast area undergoing plastic surgery. Primary fibroblasts were obtained from the skin by enzymatic digestion according to a standard protocol. Skin specimens were first washed in Salsol A solution (Human Rt, Gödöllö, Hungary) supplemented with 2% antibiotic/antimycotic solution (Sigma-Aldrich). Skin samples were then cut into narrow strips and incubated in Dispase solution (Roche Diagnostics, Mannheim, Germany) overnight at 4° C. The epidermis was subsequently separated from the dermis. Fibroblasts were obtained by incubating the dermis in Digestion Mix solution (Collagenase, Hyaluronidase and Deoxyribonuclease) for 2h at 37° C. Cell suspensions were filtered through a 100 μm nylon mesh (BD Falcon, San Jose, Calif., USA) and cells were pelleted by centrifugation. Fibroblasts were grown in low glucose DMEM medium containing 5% FBS, 1% antibiotic/antimycotic (PAA, Pasching, Austria) and 1% L-glutamine solution (PAA). Fibroblasts were cultured at 37° C. and 5% CO2 in humidified conditions. Depending on the cell growth, the medium was changed every 2-4 days and cells were passaged at 80% of confluence.
The human primary fibroblasts (6000 cells/well) and Hl60 cells (20.000 cells/well) were seeded into 96-well plates (Corning Life Sciences) in media. Fibroblasts were cultured overnight before treatment. […] Resazurin reagent was prepared and used as described in Example 1.
Viability was calculated with relation to untreated control cells and blank wells containing media without cells. IC50 values (50% inhibiting concentration) were calculated by GraphPad Prism® 5.

[3] = test system: MIA PaCa-2 (human pancreas carcinoma); assay: viability assay (Table 2); assay type: cell-based
Procedure: as §1
(§5) GBM2 (human glioblastoma), HeLa (human cervical carcinoma), MIA PaCa-2 (human pancreas carcinoma) and U87MG (human glioblastoma) cells were maintained in Dulbecco's Modified Eagle Medium (DMEM) 10% fetal calf serum (FCS, Gibco). A375 (human melanoma), A549 (human lung adenocarcinoma) and HEP3B (human hepatoma) cells were maintained in Dulbecco's Modified Eagle Medium/Nutrient Mixture F-12 (DMEM/F12) 10% FCS.
as §3, §4

[4] = test system: GBM2 (human glioblastoma); assay: viability assay (Table 2); assay type: cell-based
Procedure: as §1, §5, §3, §4

[5] = test system: A549 (human lung adenocarcinoma); assay: viability assay (Table 2); assay type: cell-based
Procedure: as §1, §5, §3, §4

HL-60 cells = assay: Annexin V / propidium iodide apoptosis assay (FIG. 4); assay type: cell-based, human; conditions: HL-60, 40 nM, 200 nM and 1 μM, 24 h
Procedure: Cells (200,000/well) were plated in 24-well tissue culture plates (Corning Life Sciences) and treated with the compounds described in Example 60 and 83 at 40 nM, 200 nM and 1 μM concentrations in 500 μl media. After 24 h cells were harvested with the corresponding supernatant and centrifuged down (2000 rpm, 5 min). Pellets were resuspended in Annexin V binding buffer (0.01 M HEPES, 0.14 M NaCl and 2.5 mM CaCl2). Annexin V-Alexa Fluor® 488 (Life Technologies, 2.5:100) was added to the cells, which were then kept for 15 min in the dark at room temperature. Before the acquisition propidium iodide (10 μg/ml, Sigma-Aldrich) was added in Annexin V binding buffer to dilute Annexin V-Alexa Fluor® 488 5×. Cells (20.000 events) were analyzed on a FACSCalibur flow cytometer using CellQuest software (Becton Dickinson). The percentage of the FL1 (530/30 nm filter, Annexin V-Alexa Fluor® 488) positive and FL3 (670 nm filter, propidium iodide) negative early apoptotic cells and FL1 positive and FL3 positive late apoptotic cells were determined. The total apoptotic population included both early and late apoptotic cells. Column charts were created by GraphPad Prism® 5. Results are depicted in FIG. 4. […] We could detect AnnexinV^+/PI^− early and AnnexinV^+/PI^+ late apoptotic cell populations after 24 h of treatment.

Row | SMILES | IC50 (HT199 (human melanoma)) | IC50 (HT168 (human melanoma)) | IC50 [1] | decrease in viability of human primary fibroblasts [2] | IC50 [3] | IC50 [4] | IC50 [5] | AnnexinV+/PI- early and AnnexinV+/PI+ late apoptotic cell populations (HL-60 cells)
1 | CC(C)(C)Nc1c(C(C)(C)C)[nH]c2c(C(=O)Nc3ccc(F)cc3)cnn12 [Example 60, 2-(Tert-butyl)-N-(4-fluorophenyl)-3-((tert-butyl-2-yl)amino)-1H-imidazo[1,2-b]pyrazole-7-carboxamide] | 0.3 µM | 0.5 µM | 0.25 µM | Significant decrease in viability was not apparent | 0.3 µM | 0.25 µM | 0.75 µM | accompanied by apoptosis
2 | CC(C)(C)Nc1c(C(C)(C)C)[nH]c2c(C(=O)Nc3ccc(N)cc3)cnn12 [Example 83, N-(4-Aminophenyl)-2-(tert-butyl)-3-(tert-butylamino)-1H-imidazo[1,2-b]pyrazole-7-carboxamide] | 0.1 µM | 0.1 µM | 0.05 µM | Significant decrease in viability was not apparent | 0.3 µM | 0.1 µM | 0.3 µM | accompanied by apoptosis
